A word on the inhibition: it is the relative decrease from the control value, in per cent.

Consider 24 molecules from EP4644375A1, “SUBSTITUTED HYDROQUINOLINES FOR THE TREATMENT OF GLIOBLASTOMA MULTIFORME” (Molius Saglik Teknolojileri Anonim Sirketi, priority 2024, dated 2025).

For test [1], the system named is U138-MG human glioma cell. The experiment in a line: Cell proliferation analysis (MTT). In kind it is cell-based. The note with it: 10 µM, two days, MTT; for activity at 10 µM / inhibition at 10 µM: Homo sapiens, 48 h. How it is done: (§1) U87-MG and U138-MG human glioma cell, were incubated with 10% fetal bovine serum (FBS) (Gibco, 10500-064), 1% L-glutamine (Gibco, 25030-024), in a humidified incubator with 5% CO2 at 37 °C. The cells were contained in DMEM High Glucose (Gibco, 41966-029) supplemented with 1% penicillin-streptomycin (P/S) (Gibco 15140-122) solution. The cytotoxic effects of the target compounds on U87-MG and U138-MG cell lines were assessed using the MTT (Thiazolyl Blue Tetrazolium Bromide) method. 7×10^3 cells were seeded into a 96-well plate in 100 µl DMEM High Glucose 10% FBS and 1% P/S. 24 hours after cell incubation, each target compound was added at a dose of 10 µM and the drug treatment was carried out for two days. After the incubation period, 10 µL of MTT solution was added to each well (5 mg/ml in PBS). After 2 hours, MTT solutions were removed from the wells. Then, 100 µl DMSO was added, and mixed to dissolve the formazan crystals. Cell proliferation was analysed by measuring the absorbance of dissolved formazan at a wavelength of 570 nm.
(§2) IC50 values were determined using the same method as above wherein the cells were treated with the target compounds at different doses.

The subject of a further test is U87-MG human glioma cell. The experiment in a line: Cell proliferation analysis (MTT). In kind it is cell-based. The note with it: for activity at 10 µM / inhibition at 10 µM: Homo sapiens, U-87 MG, 48 h; for top 5 target compounds whose treatment resulted in the lowest proliferation: ranking. The procedure:
as §1, §2

Take `C=CCN1C(=O)CCc2cc(OCCCCc3nnnn3C3CCCCC3)ccc21` [TR-G103, 1-allyl-6-(4-(1-cyclohexyl-1H-tetrazol-5-yl)butoxy)-3,4-dihydroquinolin-2(1H)-one]: in test [1], the activity at 10 µM worked out at 63% and the inhibition at 10 µM amounted to 38%. Also, in the test on U87-MG human glioma cell (10 µM, two days, MTT), the activity at 10 µM was found to be 45% and the inhibition at 10 µM worked out at 55%. The “top 5 target compounds whose treatment resulted in the lowest proliferation” value in the test on U87-MG human glioma cell is given as “top 5”.

Turning to `CC(C)C/C=N/NC(=O)COc1ccc2c(c1)CCC(=O)N2` [TR-G003, (E)-N'-(3-methylbutylidene)-2-((2-oxo-1,2,3,4-tetrahydroquinolin-6-yl)oxy)acetohydrazide], in test [1], the activity at 10 µM was 84% and the inhibition at 10 µM amounted to 16%. For the same molecule, in the test on U87-MG human glioma cell (10 µM, two days, MTT), the activity at 10 µM was 79% and the inhibition at 10 µM amounted to 21%.

Consider `CS(=O)(=O)Oc1ccc2c(c1)CCC(=O)N2` [TR-G057, 2-oxo-1,2,3,4-tetrahydroquinolin-6-yl methanesulfonate], for which, in test [1], the activity at 10 µM was 99% and the inhibition at 10 µM stood at 1%. Moreover, in the test with U87-MG human glioma cell (10 µM, two days, MTT), the activity at 10 µM worked out at 85% and the inhibition at 10 µM amounted to 15%.

`O=C1CCc2cc(OCCCCOC(=O)c3ccccc3)ccc2N1` [TR-G013, 4-((2-oxo-1,2,3,4-tetrahydroquinolin-6-yl)oxy)butyl benzoate]: the activity at 10 µM is 78% in test [1] and 71% in the test with U87-MG human glioma cell (10 µM, two days, MTT). Besides, the inhibition at 10 µM in test [1] was determined as 22%; in the test with U87-MG human glioma cell (10 µM, two days, MTT), 29%.

For the molecule `O=C1CCc2cc(OC(=O)c3cccc4ccccc34)ccc2N1` [TR-G011, 2-oxo-1,2,3,4-tetrahydroquinolin-6-yl 1-naphthoate], the activity at 10 µM in test [1] turned out to be 60%; with U87-MG human glioma cell (10 µM, two days, MTT), 76%. Besides, the inhibition at 10 µM in test [1] was 40%; with U87-MG human glioma cell (10 µM, two days, MTT), 24%.

Turning to `O=C(COc1ccc2c(c1)CCC(=O)N2)Nc1ccc([N+](=O)[O-])cn1` [TR-G122, N-(5-nitropyridin-2-yl)-2-((2-oxo-1,2,3,4-tetrahydroquinolin-6-yl)oxy)acetamide], the activity at 10 µM in test [1] worked out at 90%; in the test with U87-MG human glioma cell (10 µM, two days, MTT), 82%. The inhibition at 10 µM was determined as 11% in test [1] and 18% in the test with U87-MG human glioma cell (10 µM, two days, MTT).

`CCOC(=O)CN1C(=O)CCc2cc(OCCCCc3nnnn3C3CCCCC3)ccc21` [TR-G102, ethyl 2-(6-(4-(1-cyclohexyl-1H-tetrazol-5-yl)butoxy)-2-oxo-3,4-dihydroquinolin-1(2H)-yl)acetate]: in test [1], the activity at 10 µM was 49% and the inhibition at 10 µM worked out at 51%. Moreover, in the test with U87-MG human glioma cell (10 µM, two days, MTT), the activity at 10 µM amounted to 66% and the inhibition at 10 µM is 35%.

As for `O=C1CCc2cc(OCC3CC(c4ccc(F)cc4)=NO3)ccc2N1` (centres unmarked) [TR-G051, 6-((3-(4-fluorophenyl)-4,5-dihydroisoxazol-5-yl)methoxy)-3,4-dihydroquinolin-2(1H)-one], the activity at 10 µM worked out at 67% in test [1] and 79% with U87-MG human glioma cell (10 µM, two days, MTT). The inhibition at 10 µM stood at 33% in test [1] and 21% in the test on U87-MG human glioma cell (10 µM, two days, MTT).

`O=C1CCc2cc(OCc3cc(-c4c(F)cccc4Cl)no3)ccc2N1` [TR-G116, 6-((3-(2-chloro-6-fluorophenyl)isoxazol-5-yl)methoxy)-3,4-dihydroquinolin-2(1H)-one]: in test [1], the “Cell Proliferation (%)” value is 59% and the inhibition at 10 µM was found to be 41%. Besides, in the test with U87-MG human glioma cell (10 µM, two days, MTT), the “Cell Proliferation (%)” value is 93% and the inhibition at 10 µM came out at 7%.

Turning to `NNC(=O)COc1ccc2c(c1)CCC(=O)N2` [TR-G019, 2-((2-oxo-1,2,3,4-tetrahydroquinolin-6-yl)oxy)acetohydrazide], in test [1], the activity at 10 µM was found to be 75% and the inhibition at 10 µM stood at 25%. Moreover, in the test with U87-MG human glioma cell (10 µM, two days, MTT), the activity at 10 µM is 75% and the inhibition at 10 µM came out at 25%.

On to “2-oxo-1,2,3,4-tetrahydroquinolin-6-yl diphenylcarbamate [TR-G020]”, for which, in test [1], the “Cell Proliferation (%)” value was determined as 80% and the “Inhibition (%)” value worked out at 20%. In addition, in the test with U87-MG human glioma cell (10 µM, two days, MTT), the “Cell Proliferation (%)” value came out at 72% and the “Inhibition (%)” value turned out to be 29%.

In the case of `O=C(COc1ccc2c(c1)CCC(=O)N2)Nc1ccc(N2CCOCC2)cc1` [TR-G120, N-(4-morpholinophenyl)-2-((2-oxo-1,2,3,4-tetrahydroquinolin-6-yl)oxy)acetamide], in test [1], the activity at 10 µM was determined as 67% and the inhibition at 10 µM is 34%. Further, in the test on U87-MG human glioma cell (10 µM, two days, MTT), the activity at 10 µM amounted to 68% and the inhibition at 10 µM is 33%.

On to `O=C1CCc2cc(OC(=O)c3ccc(CCl)cc3)ccc2N1` [TR-G065, 2-oxo-1,2,3,4-tetrahydroquinolin-6-yl 4-(chloromethyl)benzoate], for which the activity at 10 µM in test [1] stood at 90%; in the test with U87-MG human glioma cell (10 µM, two days, MTT), 73%. For the same molecule, the inhibition at 10 µM in test [1] worked out at 10%; in the test on U87-MG human glioma cell (10 µM, two days, MTT), 27%.

As to `Nc1ncc(/C=N/NC(=O)COc2ccc3c(c2)CCC(=O)N3)cn1` [TR-G076, (E)-N'-((2-aminopyrimidin-5-yl)methylene)-2-((2-oxo-1,2,3,4-tetrahydroquinolin-6-yl)oxy)acetohydrazide], the activity at 10 µM came out at 92% in test [1] and 97% in the test with U87-MG human glioma cell (10 µM, two days, MTT). Further, the inhibition at 10 µM turned out to be 8% in test [1] and 3% with U87-MG human glioma cell (10 µM, two days, MTT).

As for `O=C(COc1ccc2c(c1)CCC(=O)N2)N/N=C1\C(=O)Nc2ccc([N+](=O)[O-])cc21` [TR-G056, (Z)-N'-(5-nitro-2-oxoindolin-3-ylidene)-2-((2-oxo-1,2,3,4-tetrahydroquinolin-6-yl)oxy)acetohydrazide], the activity at 10 µM in test [1] was 83%; in the test on U87-MG human glioma cell (10 µM, two days, MTT), 99%. Further, the inhibition at 10 µM in test [1] was determined as 17%; with U87-MG human glioma cell (10 µM, two days, MTT), 1%.

For `COc1cc(NC(=O)COc2ccc3c(c2)CCC(=O)N3)cc(OC)c1OC` [TR-G094, 2-((2-oxo-1,2,3,4-tetrahydroquinolin-6-yl)oxy)-N-(3,4,5-trimethoxyphenyl)acetamide], in test [1], the activity at 10 µM came to 80% and the inhibition at 10 µM came out at 20%. In addition, in the test on U87-MG human glioma cell (10 µM, two days, MTT), the activity at 10 µM was found to be 78% and the inhibition at 10 µM amounted to 22%.

Consider `C=Cc1ccc(CN2C(=O)CCc3cc(OCCCCc4nnnn4C4CCCCC4)ccc32)cc1` [TR-G107, 6-(4-(1-cyclohexyl-1H-tetrazol-5-yl)butoxy)-1-(4-vinylbenzyl)-3,4-dihydroquinolin-2(1H)-one], for which, in test [1], the activity at 10 µM was determined as 103% and the inhibition at 10 µM was -3%. Moreover, in the test with U87-MG human glioma cell (10 µM, two days, MTT), the activity at 10 µM was found to be 47% and the inhibition at 10 µM was 53%. Moreover, the “top 5 target compounds whose treatment resulted in the lowest proliferation” value in the test on U87-MG human glioma cell is on record as “top 5”.

With `CC(C)N(C(=O)Oc1ccc2c(c1)CCC(=O)N2)C(C)C` [TR-G129, 2-oxo-1,2,3,4-tetrahydroquinolin-6-yl diisopropylcarbamate], in test [1], the activity at 10 µM is 74% and the inhibition at 10 µM amounted to 26%. Besides, in the test with U87-MG human glioma cell (10 µM, two days, MTT), the activity at 10 µM is 81% and the inhibition at 10 µM worked out at 19%.

With `COc1ccc(NC(=O)COc2ccc3c(c2)CCC(=O)N3)cc1OC` [TR-G077, N-(3,4-dimethoxyphenyl)-2-((2-oxo-1,2,3,4-tetrahydroquinolin-6-yl)oxy)acetamide], the activity at 10 µM in test [1] was found to be 88%; in the test with U87-MG human glioma cell (10 µM, two days, MTT), 88%. Besides, the inhibition at 10 µM in test [1] was determined as 12%; in the test on U87-MG human glioma cell (10 µM, two days, MTT), 12%.

As to `CCCCCCn1cc(COc2ccc3c(c2)CCC(=O)N3)nn1` [TR-G125, 6-((1-hexyl-1H-1,2,3-triazol-4-yl)methoxy)-3,4-dihydroquinolin-2(1H)-one], in test [1], the activity at 10 µM came to 82% and the inhibition at 10 µM was determined as 18%. Moreover, in the test on U87-MG human glioma cell (10 µM, two days, MTT), the activity at 10 µM came out at 64% and the inhibition at 10 µM was 36%.

With `O=C1CCc2cc(OC(=O)Nc3ccccc3)ccc2N1` [TR-G131, 2-oxo-1,2,3,4-tetrahydroquinolin-6-yl phenylcarbamate], in test [1], the activity at 10 µM came out at 54% and the inhibition at 10 µM amounted to 46%. Also, in the test with U87-MG human glioma cell (10 µM, two days, MTT), the activity at 10 µM was 79% and the inhibition at 10 µM was determined as 21%.

Regarding `CC(C)CCN1C(=O)CCc2cc(OCCCCc3nnnn3C3CCCCC3)ccc21` [TR-G101, 6-(4-(1-cyclohexyl-1H-tetrazol-5-yl)butoxy)-1-isopentyl-3,4-dihydroquinolin-2(1H)-one], in test [1], the activity at 10 µM came to 76% and the inhibition at 10 µM is 24%. For the same molecule, in the test with U87-MG human glioma cell (10 µM, two days, MTT), the activity at 10 µM worked out at 76% and the inhibition at 10 µM was found to be 24%.

As to `Cc1[nH]c2ccccc2c1/C=N/NC(=O)COc1ccc2c(c1)CCC(=O)N2` [TR-G027, (E)-N'-((2-methyl-1H-indol-3-yl)methylene)-2-((2-oxo-1,2,3,4-tetrahydroquinolin-6-yl)oxy)acetohydrazide], in test [1], the activity at 10 µM amounted to 54% and the inhibition at 10 µM amounted to 46%. Further, in the test with U87-MG human glioma cell (10 µM, two days, MTT), the activity at 10 µM is 66% and the inhibition at 10 µM came to 34%.

On to `CC(=O)OCC1OC(n2cc(COc3ccc4c(c3)CCC(=O)N4)nn2)[C@H](OC(C)=O)[C@@H]1OC(C)=O` (stereo partly drawn) [TR-G058, (3R,4R)-2-(acetoxymethyl)-5-(4-(((2-oxo-1,2,3,4-tetrahydroquinolin-6-yl)oxy)methyl)-1H-1,2,3-triazol-1-yl)tetrahydrofuran-3,4-diyl diacetate], for which, in test [1], the activity at 10 µM is 100% and the inhibition at 10 µM came to 0%. Further, in the test on U87-MG human glioma cell (10 µM, two days, MTT), the activity at 10 µM worked out at 73% and the inhibition at 10 µM was determined as 27%.
